Results published in a compilation of properties of binary mixtures (doi:10.1021/jp3100377).

Experiment: xn = mol fraction of the nth substance listed
Conditions: 100 kPa

**Q.** What does the source list for `CC(=O)[O-].CC[n+]1ccn(C)c1` + O?
**A.** viscosity (293.15 K, x2 = 0): 203 mPa·s; viscosity (293.15 K, x2 = 0.4): 88.6 mPa·s; viscosity (293.15 K, x2 = 0.6014): 51.8 mPa·s; viscosity (293.15 K, x2 = 0.8023): 20.45 mPa·s; viscosity (303.15 K, x2 = 0): 104.8 mPa·s; viscosity (303.15 K, x2 = 0.2088): 77.9 mPa·s; viscosity (303.15 K, x2 = 0.6014): 32.6 mPa·s; viscosity (303.15 K, x2 = 0.8023): 13.51 mPa·s; viscosity (313.15 K, x2 = 0): 61.1 mPa·s; viscosity (313.15 K, x2 = 0.6014): 21.88 mPa·s; viscosity (313.15 K, x2 = 0.8023): 9.41 mPa·s; viscosity (323.15 K, x2 = 0): 38.9 mPa·s; viscosity (323.15 K, x2 = 0.4): 23.04 mPa·s; viscosity (323.15 K, x2 = 0.6014): 15.4 mPa·s; viscosity (323.15 K, x2 = 0.8023): 6.6 mPa·s; viscosity (333.15 K, x2 = 0): 26.56 mPa·s; viscosity (333.15 K, x2 = 0.2088): 20.8 mPa·s; viscosity (333.15 K, x2 = 0.4): 16.47 mPa·s; viscosity (333.15 K, x2 = 0.6014): 11.09 mPa·s; viscosity (333.15 K, x2 = 0.8023): 4.95 mPa·s; viscosity (343.15 K, x2 = 0): 19.01 mPa·s; viscosity (343.15 K, x2 = 0.6014): 8.39 mPa·s; viscosity (353.15 K, x2 = 0): 14.24 mPa·s; viscosity (353.15 K, x2 = 0.4): 9.27 mPa·s; viscosity (353.15 K, x2 = 0.8023): 3.021 mPa·s
